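How tested: cells in 96-well plates exposed to compound for 48 hours at five concentrations. GI50 = concentration required for 50% inhibition of growth. TGI is the concentration that stops growth completely.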
Columns and labels:
Test in all cases: DTP human tumour cell line panel, 48 h
[1] = test system: 786-0 renal
[2] = test system: A498 renal
[3] = test system: A549 NSCLC
[4] = test system: ACHN renal
[5] = test system: BT-549 breast
[6] = test system: CAKI-1 renal
[7] = test system: CCRF-CEM leukemia
[8] = test system: COLO 205 colon
[9] = test system: DU-145 prostate
[10] = test system: HCC-2998 colon
[11] = test system: HCT-116 colon
[12] = test system: HCT-15 colon
[13] = test system: HL-60(TB) leukemia
[14] = test system: HOP-62 NSCLC
[15] = test system: HOP-92 NSCLC
[16] = test system: HS 578T breast
[17] = test system: HT29 colon
[18] = test system: IGROV1 ovarian
[19] = test system: K-562 leukemia
[20] = test system: KM12 colon
[21] = test system: LOX IMVI melanoma
[22] = test system: M14 melanoma
[23] = test system: MALME-3M melanoma
[24] = test system: MCF7 breast
[25] = test system: MDA-MB-231 breast
[26] = test system: MDA-MB-435
[27] = test system: MOLT-4 leukemia
[28] = test system: NCI-H226 lung
[29] = test system: NCI-H23 lung
[30] = test system: NCI-H460 lung
[31] = test system: NCI-H522 lung
[32] = test system: NCI/ADR-RES ovarian
[33] = test system: OVCAR-3 ovarian
[34] = test system: OVCAR-4 ovarian
[35] = test system: OVCAR-5 ovarian
[36] = test system: OVCAR-8 ovarian
[37] = test system: PC-3 prostate
[38] = test system: RPMI-8226 leukemia
[39] = test system: RXF 393 renal
[40] = test system: SF-268 CNS
[41] = test system: SF-295 CNS
[42] = test system: SF-539 CNS
[43] = test system: SK-MEL-2 melanoma
[44] = test system: SK-MEL-28 melanoma
[45] = test system: SK-MEL-5 melanoma
[46] = test system: SK-OV-3 ovarian
[47] = test system: SN12C renal
[48] = test system: SNB-19 CNS
[49] = test system: SNB-75 CNS
[50] = test system: SR leukemia
[51] = test system: SW-620 colon
[52] = test system: T-47D breast
[53] = test system: TK-10 renal
[54] = test system: U251 CNS
[55] = test system: UACC-257 melanoma
[56] = test system: UACC-62 melanoma
[57] = test system: UO-31 renal

Work on `Cn1cc(C2=C(c3ccc(OC[C@@H](O)CO)cc3)C(=O)NC2=O)c2ccccc21` yielded a GI50 [1] greater than 25 µM, a TGI [1] greater than 25 µM and a GI50 [2] of 3.54 µM. It also gave a TGI [2] of 15.3 µM, a GI50 [3] greater than 25 µM and a TGI [3] greater than 25 µM. The GI50 [4] was greater than 25 µM, the TGI [4] was greater than 25 µM and the GI50 [5] was greater than 25 µM. For the same molecule, the TGI [5] was greater than 25 µM, the GI50 [6] was greater than 25 µM and the TGI [6] was greater than 25 µM. For the same molecule, the GI50 [7] was greater than 25 µM, the TGI [7] was greater than 25 µM and the GI50 [8] was greater than 25 µM. It also gave a TGI [8] greater than 25 µM, a GI50 [9] greater than 25 µM and a TGI [9] greater than 25 µM. For the same molecule, the GI50 [10] was greater than 25 µM, the TGI [10] was greater than 25 µM and the GI50 [11] was greater than 25 µM. It also gave a TGI [11] greater than 25 µM, a GI50 [12] greater than 25 µM and a TGI [12] greater than 25 µM. The GI50 [13] was greater than 25 µM, the TGI [13] was greater than 25 µM and the GI50 [14] was greater than 25 µM. The TGI [14] was greater than 25 µM, the GI50 [15] was greater than 25 µM and the TGI [15] was greater than 25 µM. For the same molecule, the GI50 [16] was 7.87 µM, the TGI [16] was greater than 25 µM and the GI50 [17] was greater than 25 µM. It also gave a TGI [17] greater than 25 µM, a GI50 [18] greater than 25 µM and a TGI [18] greater than 25 µM. It also gave a GI50 [19] greater than 25 µM, a TGI [19] greater than 25 µM and a GI50 [20] greater than 25 µM. The TGI [20] was greater than 25 µM, the GI50 [21] was greater than 25 µM and the TGI [21] was greater than 25 µM. For the same molecule, the GI50 [22] was greater than 25 µM, the TGI [22] was greater than 25 µM and the GI50 [23] was greater than 25 µM. The TGI [23] was greater than 25 µM, the GI50 [24] was greater than 25 µM and the TGI [24] was greater than 25 µM. The GI50 [25] was greater than 25 µM, the TGI [25] was greater than 25 µM and the GI50 [26] was greater than 25 µM. For the same molecule, the TGI [26] was greater than 25 µM, the GI50 [27] was greater than 25 µM and the TGI [27] was greater than 25 µM. For the same molecule, the GI50 [28] was greater than 25 µM, the TGI [28] was greater than 25 µM and the GI50 [29] was greater than 25 µM. The TGI [29] was greater than 25 µM, the GI50 [30] was greater than 25 µM and the TGI [30] was greater than 25 µM. For the same molecule, the GI50 [31] was greater than 25 µM, the TGI [31] was greater than 25 µM and the GI50 [32] was greater than 25 µM. For the same molecule, the TGI [32] was greater than 25 µM, the GI50 [33] was greater than 25 µM and the TGI [33] was greater than 25 µM. It also gave a GI50 [34] greater than 25 µM, a TGI [34] greater than 25 µM and a GI50 [35] greater than 25 µM. For the same molecule, the TGI [35] was greater than 25 µM, the GI50 [36] was greater than 25 µM and the TGI [36] was greater than 25 µM. For the same molecule, the GI50 [37] was greater than 25 µM, the TGI [37] was greater than 25 µM and the GI50 [38] was greater than 25 µM. The TGI [38] was greater than 25 µM, the GI50 [39] was 16.4 µM and the TGI [39] was greater than 25 µM. It also gave a GI50 [40] greater than 25 µM, a TGI [40] greater than 25 µM and a GI50 [41] greater than 25 µM. The TGI [41] was greater than 25 µM, the GI50 [42] was greater than 25 µM and the TGI [42] was greater than 25 µM. For the same molecule, the GI50 [43] was greater than 25 µM, the TGI [43] was greater than 25 µM and the GI50 [44] was greater than 25 µM. For the same molecule, the TGI [44] was greater than 25 µM, the GI50 [45] was greater than 25 µM and the TGI [45] was greater than 25 µM. For the same molecule, the GI50 [46] was greater than 25 µM, the TGI [46] was greater than 25 µM and the GI50 [47] was greater than 25 µM. For the same molecule, the TGI [47] was greater than 25 µM, the GI50 [48] was greater than 25 µM and the TGI [48] was greater than 25 µM. It also gave a GI50 [49] of 2.23 µM, a TGI [49] greater than 25 µM and a GI50 [50] greater than 25 µM. For the same molecule, the TGI [50] was greater than 25 µM, the GI50 [51] was greater than 25 µM and the TGI [51] was greater than 25 µM. The GI50 [52] was greater than 25 µM, the TGI [52] was greater than 25 µM and the GI50 [53] was greater than 25 µM. The TGI [53] was greater than 25 µM, the GI50 [54] was greater than 25 µM and the TGI [54] was greater than 25 µM. It also gave a GI50 [55] greater than 25 µM, a TGI [55] greater than 25 µM and a GI50 [56] greater than 25 µM. It also gave a TGI [56] greater than 25 µM, a GI50 [57] greater than 25 µM and a TGI [57] greater than 25 µM.

— PubChem BioAssay (NCI)
